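Cultured in 96-well plates, cells were exposed to test compound for 48 hours across five concentrations. TGI: total growth inhibition.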
Columns and labels:
Assay in all cases: NCI anticancer screen, dose series, 48 h
HT29 colon = tested on: HT29 colon
CCRF-CEM leukemia = tested on: CCRF-CEM leukemia
SK-MEL-28 melanoma = tested on: SK-MEL-28 melanoma
K-562 leukemia = tested on: K-562 leukemia
HCT-116 colon = tested on: HCT-116 colon
IGROV1 ovarian = tested on: IGROV1 ovarian
RXF 393 renal = tested on: RXF 393 renal
OVCAR-3 ovarian = tested on: OVCAR-3 ovarian
U251 CNS = tested on: U251 CNS
ACHN renal = tested on: ACHN renal
LXFL 529 NSCLC = tested on: LXFL 529 NSCLC
OVCAR-5 ovarian = tested on: OVCAR-5 ovarian
786-0 renal = tested on: 786-0 renal
MALME-3M melanoma = tested on: MALME-3M melanoma
SNB-19 CNS = tested on: SNB-19 CNS
NCI-H226 lung = tested on: NCI-H226 lung
HOP-92 NSCLC = tested on: HOP-92 NSCLC
NCI-H460 lung = tested on: NCI-H460 lung
RPMI-8226 leukemia = tested on: RPMI-8226 leukemia
MDA-MB-231 breast = tested on: MDA-MB-231 breast

SMILES	TGI (HT29 colon) [µM]	TGI (CCRF-CEM leukemia) [µM]	TGI (SK-MEL-28 melanoma) [µM]	TGI (K-562 leukemia) [µM]	TGI (HCT-116 colon) [µM]	TGI (IGROV1 ovarian) [µM]	TGI (RXF 393 renal) [µM]	TGI (OVCAR-3 ovarian) [µM]	TGI (U251 CNS) [µM]	TGI (ACHN renal) [µM]	TGI (LXFL 529 NSCLC) [µM]	TGI (OVCAR-5 ovarian) [µM]	TGI (786-0 renal) [µM]	TGI (MALME-3M melanoma) [µM]	TGI (SNB-19 CNS) [µM]	TGI (NCI-H226 lung) [µM]	TGI (HOP-92 NSCLC) [µM]	TGI (NCI-H460 lung) [µM]	TGI (RPMI-8226 leukemia) [µM]	TGI (MDA-MB-231 breast) [µM]
CCN(CC)CCNC(=O)c1ccc([N+](=O)[O-])cc1OC	> 100	> 100	> 100	> 100	> 100	> 100	> 100	> 100	> 100	> 100	> 100	> 100	> 100	> 100	> 100	> 100	> 100	> 100	–	–
Cc1c(C(=O)CSc2nc3ccc([N+](=O)[O-])cc3[nH]2)c(=O)n(-c2ccccc2)n1C	> 100	> 100	> 100	–	> 100	> 100	–	> 100	> 100	> 100	> 100	> 100	> 100	> 100	> 100	> 100	> 100	> 100	> 100	–
FC(F)(F)P1C2C=CC(CC2)C1(F)F (configuration not stated)	> 100	> 100	> 100	> 100	> 100	> 100	> 100	–	> 100	> 100	> 100	> 100	> 100	> 100	> 100	> 100	–	> 100	> 100	–
CCC1(OC(=O)CN2CCN(CCO)CC2)C(=O)OCc2c1cc1n(c2=O)Cc2cc3ccccc3nc2-1 (configuration not stated)	8.85	0.451	39.2	26.2	3.35	17.4	3.27	3.81	2.41	1.52	21.4	7.6	2.53	12	28.6	2.2	6.96	0.971	5.28	65.7
COc1cc(C2C(Cl)C(=O)N2n2cnc3ccccc3c2=O)cc(OC)c1OC (configuration not stated)	> 100	> 100	> 100	> 100	> 100	> 100	> 100	> 100	> 100	> 100	> 100	> 100	> 100	> 100	> 100	> 100	–	> 100	> 100	–
CCOc1ccc(N2C(=O)C3c4[nH]c5ccccc5c4C4CCC(C(C)(C)C)CC4C3C2=O)cc1 (configuration not stated)	> 100	> 100	> 100	> 100	> 100	> 100	71	–	> 100	> 100	> 100	–	> 100	> 100	> 100	> 100	> 100	–	> 100	–
O=C1CC2CC=C[C@H]3c4cc5c(cc4C(=O)N1C23)OCO5 (some centres not stated)	> 50	> 50	> 50	> 50	> 50	> 50	> 50	> 50	> 50	> 50	> 50	–	> 50	> 50	> 50	> 50	–	> 50	> 50	–
O=C1C=C(N2CCCC2)C=C(N2CCCC2)C1	> 100	> 100	> 100	> 100	> 100	> 100	> 100	> 100	> 100	> 100	> 100	> 100	> 100	> 100	> 100	> 100	> 100	> 100	> 100	–

Source: PubChem BioAssay (NCI)
